{"source": "patent US20140274782A1", "about": "“AFFINITY REAGENTS AND METHODS FOR DETECTION, PURIFICATION, AND PROTEOMIC ANALYSIS OF METHYLATED PROTEINS” (The Board of Trustees of the Leland Stanford Junior …, priority 2013, published 2014)", "key": {"[1]": {"system": "3×MBT domain of L3MBTL1", "experiment": "SILAC proteomic pull-down 3×MBT vs 3×MBTD355N from 293T nuclear extract, LC-MS/MS", "assay_type": "binding, human", "details": "for Protein Ratio 3xMBT/D355N: SILAC ratio, 293T nuclear extract pull-down, * = protein identified in only one labeling experiment", "protocol": "Protein pull-downs were performed as described above using 600 μg of nuclear extract prepared with isotopic labels as indicated. After eluting with glutathione, 3×MBT domain was removed by dialysis into high salt and rebinding to GSH-sepharose. Bound proteins were separated by SDS-PAGE and analyzed by in-gel tryptic digest followed by LC-MS/MS. Peptides were identified using MaxQuant version 1.2.2.5 (Cox and Mann (2008) Nat. Biotechnol. 26, 1367-1372) and candidate methylated peptides were verified by manual inspection.\nFor stable isotope labeling by amino acids in cell culture (SILAC) experiments HEK 293T cells were grown for at least six doublings in DMEM for SILAC supplemented with 10% dialyzed fetal bovine serum (FBS), 230 mg/L L-proline and either 100 mg/L each of L-lysine and L-arginine (“light” medium), D4-L-lysine and ^13C6-L-arginine (“medium” media), or ^13C6^15N2-L-lysine and ^13C6^15N4-L-arginine (Thermo Scientific). Heavy methyl labeling used DMEM without L-Methionine or L-Cysteine supplemented with D3^13C-L-Methionine (Sigma), L-Cysteine (Sigma) and 10% dialyzed FBS.\n600 μg of nuclear extract was incubated overnight rotating at 4° C. with 20 μl packed 3×MBT or 3×MBTD355N beads in a total volume of 250 μL with binding buffer. Supernatant was removed and saved for use as a loading control. Beads were washed 4×5 minutes with 0.5 mL binding buffer. Protein was eluted by incubating in 20 μL elution buffer (10 mg/mL glutathione in 50 mM Tris pH 8.0) rotating at 4° C. for four hours. Elutions from 3×MBT and 3×MBTD355N were combined and dialyzed overnight at 4° C. against 10,000× volume of dissociation buffer (50 mM Tris pH 7.5, 750 mM NaCl) in a 0.1 mL Slide-A-Lyzer MINI Dialysis Device with 3.5K molecular weight cutoff (Thermo Scientific). 80 μL of GSH-Sepharose was prepared by washing briefly three times with 0.5 mL binding buffer. Dialyzed proteins were added to the GSH-Sepharose and incubated 4 hours rotating at 4° C. to deplete the GST-fusion domains. Supernatant was transferred to a fresh 1.5 mL tube. Proteins were separated by SDS-PAGE on a 10% polyacrylamide gel and stained using SilverQuest Silver Staining Kit (Life Technologies). Lanes were excised, residual 3×MBT band was removed, and gel was diced into 0.5 mm cubes. Gel pieces were destained and processed by in-gel digestion (Carlson et al. (2011) Science Signaling 4) with sequencing grade trypsin (Promega) and the peptide sample was dried completely in a vacuum centrifuge. To prepare a loading control, 2 μL each of light and heavy nuclear extract were combined, 6 μL of 8M urea was added, proteins were denatured by adding 2 μL of 100 mM dithiothreitol in digest buffer (50 mM ammonium bicarbonate) and heating to 60° C. for 1 hour, cysteine was alkylated by adding 2.2 μL 100 mg/mL iodoacetamide in digest buffer and incubating 1 hour at room temperature in darkness, and proteins were digested by adding 80 μL trypsin (Promega) at 12.5 ng/μL in digest buffer and incubating overnight at room temperature in darkness. Digestion was stopped by adding 10 μL of 10% formic acid.\nEach experiment consisted of two sets of pull-downs: “forward” labeling with 3×MBT incubated with light nuclear extract and 3×MBTD355N with medium extract, and a second “reverse” labeling experiment with the label conditions swapped. Proteins were included in the results if they were quantified in both labeling directions. To determine reproducibility the entire experiment including the label swap was duplicated using independent protein preparations and a mass spectrometer at another institution.\nFor 3×MBT pull-down experiment #1 the gel lane was processed and peptides were loaded off-line onto a first dimension trap column (Waters Xbridge, C18, 10 μm particle size, 100 Å pore size, 5 cm packing length, 150 μm column i.d.). […]"}, "[2]": {"molecular_target": "T1, G9a and GLP (Homo sapiens, UniProt Q96KQ7+Q9H9B1)", "T1 construct": "endogenous in cells; host or cells: HEK 293T", "T1 sequence (Q96KQ7 2-1210 limits assumed)": "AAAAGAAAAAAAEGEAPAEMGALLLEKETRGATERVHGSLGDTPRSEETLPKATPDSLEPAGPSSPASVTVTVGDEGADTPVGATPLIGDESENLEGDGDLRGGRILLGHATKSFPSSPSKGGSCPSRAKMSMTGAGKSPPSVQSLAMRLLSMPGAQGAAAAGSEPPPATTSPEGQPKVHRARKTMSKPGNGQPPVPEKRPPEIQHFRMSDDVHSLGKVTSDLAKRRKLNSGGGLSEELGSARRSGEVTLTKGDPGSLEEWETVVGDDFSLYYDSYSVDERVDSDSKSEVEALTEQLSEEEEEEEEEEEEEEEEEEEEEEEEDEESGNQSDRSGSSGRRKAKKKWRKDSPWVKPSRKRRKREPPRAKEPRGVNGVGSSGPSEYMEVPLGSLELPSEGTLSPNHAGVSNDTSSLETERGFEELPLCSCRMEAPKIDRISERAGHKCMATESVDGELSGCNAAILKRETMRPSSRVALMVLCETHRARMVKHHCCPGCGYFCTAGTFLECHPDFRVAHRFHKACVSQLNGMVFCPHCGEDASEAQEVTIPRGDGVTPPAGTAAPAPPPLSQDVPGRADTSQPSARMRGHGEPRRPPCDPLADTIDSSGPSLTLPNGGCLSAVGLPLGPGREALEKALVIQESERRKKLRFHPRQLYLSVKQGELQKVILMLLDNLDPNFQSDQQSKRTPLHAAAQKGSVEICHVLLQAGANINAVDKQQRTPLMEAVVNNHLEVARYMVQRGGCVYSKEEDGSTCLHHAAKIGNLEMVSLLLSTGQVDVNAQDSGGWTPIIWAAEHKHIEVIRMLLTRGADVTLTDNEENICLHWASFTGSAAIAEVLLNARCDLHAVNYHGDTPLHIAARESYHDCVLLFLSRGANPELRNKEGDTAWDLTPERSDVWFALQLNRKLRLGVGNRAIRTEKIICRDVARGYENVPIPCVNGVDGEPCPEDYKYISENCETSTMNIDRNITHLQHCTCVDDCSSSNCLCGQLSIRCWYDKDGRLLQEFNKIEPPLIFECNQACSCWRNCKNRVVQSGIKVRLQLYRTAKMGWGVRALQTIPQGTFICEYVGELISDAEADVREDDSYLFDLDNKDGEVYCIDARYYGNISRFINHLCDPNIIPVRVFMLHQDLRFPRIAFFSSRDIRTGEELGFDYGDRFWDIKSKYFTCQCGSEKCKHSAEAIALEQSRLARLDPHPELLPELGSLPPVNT", "T1 sequence (Q9H9B1 2-1298 limits assumed)": "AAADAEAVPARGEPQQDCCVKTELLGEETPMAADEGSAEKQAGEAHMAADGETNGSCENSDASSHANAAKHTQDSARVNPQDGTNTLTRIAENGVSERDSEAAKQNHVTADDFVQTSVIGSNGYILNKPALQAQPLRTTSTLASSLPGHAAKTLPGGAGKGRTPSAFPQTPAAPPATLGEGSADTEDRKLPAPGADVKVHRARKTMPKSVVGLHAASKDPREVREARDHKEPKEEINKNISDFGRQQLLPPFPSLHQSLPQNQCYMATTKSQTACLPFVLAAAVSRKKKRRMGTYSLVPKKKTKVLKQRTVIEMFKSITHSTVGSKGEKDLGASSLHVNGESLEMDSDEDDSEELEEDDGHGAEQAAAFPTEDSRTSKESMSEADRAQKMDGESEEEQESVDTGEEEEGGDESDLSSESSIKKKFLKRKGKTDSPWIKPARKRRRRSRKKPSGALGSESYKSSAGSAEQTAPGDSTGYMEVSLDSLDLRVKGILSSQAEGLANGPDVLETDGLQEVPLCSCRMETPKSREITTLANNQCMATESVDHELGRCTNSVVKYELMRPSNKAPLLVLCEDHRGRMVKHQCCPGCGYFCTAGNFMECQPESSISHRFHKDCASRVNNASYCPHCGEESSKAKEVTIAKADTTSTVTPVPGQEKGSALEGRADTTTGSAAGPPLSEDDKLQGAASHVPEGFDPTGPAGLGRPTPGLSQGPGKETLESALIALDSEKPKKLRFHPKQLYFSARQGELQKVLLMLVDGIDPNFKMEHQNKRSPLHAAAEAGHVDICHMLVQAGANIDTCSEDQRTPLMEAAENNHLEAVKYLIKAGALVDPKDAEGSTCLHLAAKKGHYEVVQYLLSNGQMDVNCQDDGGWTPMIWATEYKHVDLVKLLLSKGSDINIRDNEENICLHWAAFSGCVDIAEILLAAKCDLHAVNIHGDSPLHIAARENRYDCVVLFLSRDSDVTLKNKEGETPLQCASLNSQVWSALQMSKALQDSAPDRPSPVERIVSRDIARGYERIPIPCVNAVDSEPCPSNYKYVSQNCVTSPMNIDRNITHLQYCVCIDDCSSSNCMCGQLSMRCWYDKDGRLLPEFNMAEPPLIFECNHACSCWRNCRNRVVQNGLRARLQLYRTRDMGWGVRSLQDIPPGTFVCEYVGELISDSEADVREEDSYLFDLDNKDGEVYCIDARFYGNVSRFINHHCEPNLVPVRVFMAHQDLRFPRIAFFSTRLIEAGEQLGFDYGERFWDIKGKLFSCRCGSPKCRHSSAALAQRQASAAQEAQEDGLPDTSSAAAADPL", "experiment": "Triple SILAC pull-down after UNC0638 treatment of 293T cells, DMSO/UNC0638 ratio of protein captured by 3×MBT;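 further: mass spectrometry (Q-Exactive) SILAC quantitation, DMSO/UNC0638 ratio computed after subtracting 3×MBTD355N mutant pull-down background, only proteins with at least twofold 3×MBT over mutant signal considered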", "assay_type": "cell-based", "details": "293T cells, 2.5 μM, 24 hours"}, "[3]": {"system": "H3K9me2", "experiment": "Western blot of 293T whole cell extracts ±UNC0638", "assay_type": "cell-based", "details": "293T cells", "protocol": "For UNC0638 treatments cells were treated for 24 hours with UNC0638 at 2.5 μM or DMSO vehicle control. One experiment treated cells in light media with UNC0638, the other treated cells in heavy media. Both experiments included cells in medium media treated with DMSO for negative control pull-down with 3×MBTD355N."}}}
{"molecule": "3×MBTD355N: 3×MBT with mutation of aspartate 355 to asparagine; abrogates binding to methyl-lysine; negative control [reference compound]", "values": [{"measurement": "number of the 544 identified proteins enriched at 2-fold versus the other domain", "setting": "[1]; SILAC", "value": 3}, {"measurement": "percentage of the 544 identified proteins enriched at 2-fold versus the other domain", "setting": "[1]; SILAC", "value": 0.6, "unit": "%"}]}
{"molecule": "COc1cc2c(NC3CCN(C(C)C)CC3)nc(C3CCCCC3)nc2cc1OCCCN1CCCC1", "note": "[UNC0638, reference compound]", "values": [{"measurement": "number of candidate G9a/GLP substrates showing reduced association with 3×MBT in response to treatment", "setting": "[2]", "value": 23}, {"measurement": "levels of the G9a target H3K9me2 in treated cells", "setting": "[3]", "value": "reduced"}]}
{"molecule": "TUBB2C: protein with methylated lysine identified in 3xMBT pull-down", "values": [{"measurement": "Protein Ratio 3xMBT/D355N", "setting": "[1]", "value": 2.1}]}
{"molecule": "hn RNP A/B: protein with methylated lysine identified in 3xMBT pull-down", "values": [{"measurement": "Protein Ratio 3xMBT/D355N", "setting": "[1]", "value": 13.4}]}
{"molecule": "hnRNP K: protein with methylated lysine identified in 3xMBT pull-down", "values": [{"measurement": "Protein Ratio 3xMBT/D355N", "setting": "[1]", "value": 8.0}]}
